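GI50 is the concentration that inhibits growth by half. TGI marks complete inhibition of growth.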
Experiments:
Assay in all cases: growth of human tumour cells (NCI), 384-well format
[1] = system: NCI-H226 lung
[2] = system: NCI-H23 lung
[3] = system: NCI-H322M lung
[4] = system: NCI-H522 lung
[5] = system: NCI/ADR-RES ovarian
[6] = system: OVCAR-3 ovarian
[7] = system: OVCAR-4 ovarian
[8] = system: OVCAR-5 ovarian
[9] = system: OVCAR-8 ovarian
[10] = system: PC-3 prostate
[11] = system: RPMI-8226 leukemia
[12] = system: RXF 393 renal
[13] = system: SF-268 CNS
[14] = system: SF-295 CNS
[15] = system: SF-539 CNS
[16] = system: SK-MEL-2 melanoma
[17] = system: SK-MEL-28 melanoma
[18] = system: SK-OV-3 ovarian
[19] = system: SN12C renal
[20] = system: SNB-19 CNS
[21] = system: SNB-75 CNS
[22] = system: SW-620 colon
[23] = system: T-47D breast
[24] = system: TK-10 renal
[25] = system: U251 glioblastoma
[26] = system: UACC-257 melanoma
[27] = system: UACC-62 melanoma
[28] = system: UO-31 renal

O=P1(NCCCl)OCCCN1CCCl (stereo not given)
TGI [1]: > 100 µM
GI50 [2]: > 100 µM
TGI [2]: > 100 µM
GI50 [3]: > 100 µM
TGI [3]: > 100 µM
GI50 [4]: > 100 µM
TGI [4]: > 100 µM
GI50 [5]: > 100 µM
TGI [5]: > 100 µM
GI50 [6]: > 100 µM
TGI [6]: > 100 µM
GI50 [7]: > 100 µM
TGI [7]: > 100 µM
GI50 [8]: > 100 µM
TGI [8]: > 100 µM
GI50 [9]: > 100 µM
TGI [9]: > 100 µM
GI50 [10]: > 100 µM
TGI [10]: > 100 µM
GI50 [11]: > 100 µM
TGI [11]: > 100 µM
GI50 [12]: > 100 µM
TGI [12]: > 100 µM
GI50 [13]: > 100 µM
TGI [13]: > 100 µM
GI50 [14]: > 100 µM
TGI [14]: > 100 µM
GI50 [15]: > 100 µM
TGI [15]: > 100 µM
GI50 [16]: > 100 µM
TGI [16]: > 100 µM
GI50 [17]: > 100 µM
TGI [17]: > 100 µM
GI50 [18]: > 100 µM
TGI [18]: > 100 µM
GI50 [19]: > 100 µM
TGI [19]: > 100 µM
GI50 [20]: > 100 µM
TGI [20]: > 100 µM
GI50 [21]: > 100 µM
TGI [21]: > 100 µM
GI50 [22]: > 100 µM
TGI [22]: > 100 µM
GI50 [23]: > 100 µM
TGI [23]: > 100 µM
GI50 [24]: > 100 µM
TGI [24]: > 100 µM
GI50 [25]: > 100 µM
TGI [25]: > 100 µM
GI50 [26]: > 100 µM
TGI [26]: > 100 µM
GI50 [27]: > 100 µM
TGI [27]: > 100 µM
GI50 [28]: > 100 µM
TGI [28]: > 100 µM

Source: PubChem BioAssay (NCI)
